Results published in PMC3728092, “Improvement of Pharmacokinetics Behavior of Apocynin by Nitrone Derivatization: Comparative Pharmacokinetics of Nitrone-Apocynin and its Parent Apocynin in Rats” (PLoS ONE, 2013).
Values joined by “and” are separate entries in the source; they are usually repeats but may differ in a detail not shown here. Equal values may be shown once. Read-outs that look alike come from different tables or passages of the source.

How the values were obtained:
[1] = Solubility in water (remark on dosing vehicle); type: physicochemical
Procedure: (§1) Male Sprague-Dawley rats, weighing 210–290 g, were fasted for 12 h but with free access to water before dosing. The rats were randomly divided into groups of intravenous AN-1, intravenous apocynin, intragastric AN-1 and intragastric apocynin. […] Apocynin was dissolved in a mixture of propylene glycol-saline (4∶6, v/v). The single-dose pharmacokinetic study was performed. For AN-1, three different doses (20, 40 and 80 mg/kg) were administered for intravenous study (n = 6–8) and one dose (40 mg/kg) was given for intragastric study (n = 6). For apocynin, 50 mg/kg, an equimolar dose to 80 mg/kg (0.302 mmol/kg) of AN-1, was administered for both intravenous (n = 8) and intragastric studies (n = 6). A day before dosing, a cannula was introduced into jugular vein on rats for intravenous dosing and blood sampling in all groups.

[2] = system: gp91^phox subunit of NADPH-oxidase; set-up: method as in earlier work; conditions: RAW 264.7 macrophage cells; cited from earlier work
[3] = Single-dose pharmacokinetic study (intravenous and intragastric) with HPLC-UV plasma assay, non-compartmental analysis; type: in vivo, Sprague-Dawley rats; conditions: rat; for half-life / bioavailability / Cmax / Tmax / MRT last / clearance: male, Sprague-Dawley, plasma; for bioavailability: oral, read-out: F (absolute oral bioavailability); for MRT last: read-out: MRT0–t (converted)
Procedure: as §1
Blood samples (0.4 mL) was collected via jugular vein into heparinized tubes at 0 min (before dosing) and 5, 10, 15, 30, 45, 60, 90, 120, 180, 240, 360, 480, 600, 720, 840 min for AN-1 and at 0 min (before dosing) and 2, 4, 6, 10, 15, 20, 30, 40, 50, 60 min for apocynin after intravenous and intragastric dosing. An equal volume of heparinized saline was used to flush the catheter immediately after each blood withdrawal to prevent blood clotting. The blood samples were centrifuged immediately at 10,000 rpm for 5 min at 4°C, and then the plasma was transferred and stored at −20°C until analysis.
The profiles of analyte concentrations in rat plasma versus time were analyzed to calculate pharmacokinetic parameters by a non-compartmental model using DAS software (version 3.0.1, Chinese Mathematical Pharmacology Society).

[4] = system: RAW 264.7 macrophage cells; set-up: method as in earlier work; conditions: RAW 264.7 cells, compared to parent apocynin, cited from earlier work
[5] = system: LPS-induced acute lung injury; set-up: method as in earlier work; conditions: rat model of LPS-induced acute lung injury; cited from earlier work
[6] = Stability of analytes in rat plasma under different storage conditions; type: in vitro ADME; conditions: for Accuracy, post-preparative stability: post-preparative QC samples; for Accuracy, post-preparative stability / Accuracy, short-term stability / Accuracy, freeze-thaw stability / Accuracy, long-term stability: n = 5; for time post-preparative solutions stable: room temperature; for Accuracy in stability test (summary) / Accuracy, short-term stability / Accuracy, freeze-thaw stability / Accuracy, long-term stability: rat plasma; for Accuracy in stability test (summary): long-term −20°C, short-term room temperature and three freeze-thaw cycles; for Accuracy, freeze-thaw stability: three freeze-thaw cycles; for Accuracy, long-term stability: −20°C for 30 days
Procedure: The stability of analytes in rat plasma stored under different conditions was assessed at low, medium and high QC concentrations, respectively. The conditions included long-term storage at −20°C for 30 days, short-term storage at room temperature (8 h for AN-1, 24 h for apocynin), three freeze-thaw cycles treatment, and post-preparative QC samples stored at room temperature (8 h for AN-1, 24 h for apocynin). The concentrations measured from the above samples were compared with the nominal values of QC plasma samples. Samples were concluded stable and applicable to routine analysis if the deviation of the observed concentration was less than ±15% from the nominal value.

[7] = intravenous and oral (intragastric), range over all intravenous and intragastric dose groups, read-out: terminal elimination half-life
[8] = po, intragastric, 40 mg/kg, n = 6
[9] = room temperature 8 h, 0.2 µg/mL
[10] = room temperature 8 h, 250 µg/mL
[11] = room temperature 8 h, 400 µg/mL
[12] = po, intragastric, 50 mg/kg, n = 6
[13] = room temperature 24 h, 0.4 µg/mL
[14] = room temperature 24 h, 40 µg/mL
[15] = room temperature 24 h, 80 µg/mL

SMILES: COc1cc(C(C)=O)cc(/C=[N+](\[O-])C(C)(C)C)c1O [AN-1, (Z)-N-(5-Acetyl-2-hydroxy-3-methoxybenzylidene)-2-methylpropan-2-amine oxide]
- solubility in water [1]: poor solubility in water
- expression of gp91^phox induced by t-BHP [2]: depressing the high expression
- half-life [3, 7]: 2.71 to 3.35 h
- bioavailability ([3]; intragastric 40 mg/kg vs intravenous 40 mg/kg): 78%
- Cmax [3, 8]: 80 ± 20 µM
- Tmax [3, 8]: 0.43 h
- MRT last [3, 8]: 4.85 h
- half-life ([3]; po, intragastric, 40 mg/kg, n = 6, read-out: T1/2): 3.35 ± 1.62 h
- clearance ([3]; intravenous, 20 mg/kg, n = 8): 5 ± 1 mL/min/kg
- MRT last ([3]; intravenous, 20 mg/kg, n = 8): 2.94 h
- half-life ([3]; intravenous, 20 mg/kg, n = 8, read-out: T1/2): 2.86 ± 1.33 h
- clearance ([3]; intravenous, 40 mg/kg, n = 6): 6 ± 1 mL/min/kg
- MRT last ([3]; intravenous, 40 mg/kg, n = 6): 3.22 h
- half-life ([3]; intravenous, 40 mg/kg, n = 6, read-out: T1/2): 2.71 ± 0.938 h
- half-life ([3]; intravenous, 80 mg/kg (0.302 mmol/kg), n = 8, read-out: T1/2): 3 ± 0.748 h
- clearance ([3]; intravenous, 80 mg/kg, n = 8): 5 ± 1 mL/min/kg
- MRT last ([3]; intravenous, 80 mg/kg, n = 8): 3.42 h
- exposure in the systemic circulation (AUC0–t) relative to apocynin ([3]; equimolar intravenous dose 0.302 mmol/kg): 25 fold
- AUC0–t ([3]; intragastric, 40 mg/kg, n = 6): 20.68 ± 3.95 mmol·min/L
- CL ([3]; intragastric, 40 mg/kg, n = 6): 7 ± 1 mL/min/kg
- V ([3]; intragastric, 40 mg/kg, n = 6): 1.95 ± 0.90 L/kg
- AUC0–t ([3]; intravenous, 20 mg/kg, n = 8): 14.88 ± 1.31 mmol·min/L
- V ([3]; intravenous, 20 mg/kg, n = 8): 1.20 ± 0.54 L/kg
- AUC0–t ([3]; intravenous, 40 mg/kg, n = 6): 26.51 ± 5.12 mmol·min/L
- V ([3]; intravenous, 40 mg/kg, n = 6): 1.27 ± 0.32 L/kg
- AUC0–t ([3]; intravenous, 80 mg/kg (0.302 mmol/kg), n = 8, 80 mg/kg): 61.89 mmol·min/L and 61.89 ± 7.59 mmol·min/L
- V ([3]; intravenous, 80 mg/kg, n = 8): 1.20 ± 0.32 L/kg
- protection against t-BHP inducing oxidative cytotoxicity [4]: protected
- ROS production ([4]; t-BHP): attenuated the ROS production markedly
- activity of superoxide dismutase in the lung of model rats [5]: significantly increased
- treatment effect for the lung injury of model rats [5]: greater treatment effect than apocynin
- Accuracy, post-preparative stability [6, 9]: 88.61±0.58%
- Accuracy, post-preparative stability [6, 10]: 88.14±0.84%
- Accuracy, post-preparative stability [6, 11]: 91.96±1.51%
- time post-preparative solutions stable [6]: at least 8 h
- Accuracy in stability test (summary) [6]: higher than 90%
- Accuracy, short-term stability [6, 9]: 89.96±0.31%
- Accuracy, short-term stability [6, 10]: 91.99±1.37%
- Accuracy, short-term stability [6, 11]: 91.46±0.96%
- Accuracy, freeze-thaw stability ([6]; 0.2 µg/mL): 94.79±0.46%
- Accuracy, freeze-thaw stability ([6]; 250 µg/mL): 95.56±0.95%
- Accuracy, freeze-thaw stability ([6]; 400 µg/mL): 96.33±0.98%
- Accuracy, long-term stability ([6]; 0.2 µg/mL): 92.98±1.91%
- Accuracy, long-term stability ([6]; 250 µg/mL): 94.74±2.43%
- Accuracy, long-term stability ([6]; 400 µg/mL): 91.92±0.86%

SMILES: COc1cc(C(C)=O)ccc1O [Apocynin, 4-hydroxy-3-methoxyacetophenone]
- half-life [3, 7]: 0.0983 to 0.102 h
- bioavailability ([3]; intragastric 50 mg/kg vs intravenous 50 mg/kg): 2.8%
- Cmax [3, 12]: 8 ± 2 µM
- Tmax [3, 12]: 0.0883 h
- MRT last [3, 12]: 0.135 h
- half-life ([3]; po, intragastric, 50 mg/kg, n = 6, read-out: T1/2): 0.0983 ± 0.03 h
- half-life ([3]; intravenous, 50 mg/kg (0.302 mmol/kg), n = 8, read-out: T1/2): 0.102 ± 0.015 h
- clearance ([3]; intravenous, 50 mg/kg, n = 8): 120 ± 20 mL/min/kg
- MRT last ([3]; intravenous, 50 mg/kg, n = 8): 0.117 h
- AUC0–t ([3]; intragastric, 50 mg/kg, n = 6): 0.07 ± 0.01 mmol·min/L
- CL ([3]; intragastric, 50 mg/kg, n = 6): 3670 ± 350 mL/min/kg
- V ([3]; intragastric, 50 mg/kg, n = 6): 31.46 ± 12.14 L/kg
- AUC0–t ([3]; intravenous, 50 mg/kg (0.302 mmol/kg), n = 8, 50 mg/kg): 2.49 ± 0.46 mmol·min/L
- AUC0–t ([3]; intravenous, 50 mg/kg (0.302 mmol/kg), n = 8, listed as apocynin, 50 mg/kg): 2.49 mmol·min/L
- V ([3]; intravenous, 50 mg/kg, n = 8): 1.09 ± 0.30 L/kg
- Accuracy, post-preparative stability [6, 13]: 98.34±6.26%
- Accuracy, post-preparative stability [6, 14]: 94.57±0.60%
- Accuracy, post-preparative stability [6, 15]: 92.51±1.43%
- time post-preparative solutions stable [6]: at least 8 h
- Accuracy in stability test (summary) [6]: higher than 90%
- Accuracy, short-term stability [6, 13]: 102.47±6.10%
- Accuracy, short-term stability [6, 14]: 95.52±1.01%
- Accuracy, short-term stability [6, 15]: 94.11±1.35%
- Accuracy, freeze-thaw stability ([6]; 0.4 µg/mL): 102.87±1.62%
- Accuracy, freeze-thaw stability ([6]; 40 µg/mL): 95.48±0.69%
- Accuracy, freeze-thaw stability ([6]; 80 µg/mL): 93.60±1.79%
- Accuracy, long-term stability ([6]; 0.4 µg/mL): 102.17±0.87%
- Accuracy, long-term stability ([6]; 40 µg/mL): 95.18±0.34%
- Accuracy, long-term stability ([6]; 80 µg/mL): 94.09±0.99%
